# Several values for one entry are separate records, joined by “and”; a condition that tells them apart may be missing. Equal values may be shown once. Toxic doses and inconclusive results are not listed.
# Tested on: P388 leukemia ip, CD2F1 mice, survival T/C
# Experiment: NCI In Vivo Anticancer Drug Screen. Data for tumor model P388 Leukemia (intraperitoneal) in CD2F1 (CDF1) mice
# Settings: endpoint: median survival time, higher = longer survival
# Procedure, shortened: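 Mice carrying the transplanted tumor received test compound or vehicle. Survival was recorded in each group, and the value is the treated-group measurement divided by that of the vehicle-treated control group.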
# [1] = dose: 50.0 mg/kg/injection, schedule: Q01DX005 (ip), vehicle: saline with Tween-80
# [2] = dose: 100.0 mg/kg/injection, schedule: Q01DX005 (ip), vehicle: saline with Tween-80
# [3] = dose: 50.0 mg/kg/injection, schedule: Q01DX005 (ip), vehicle: Klucel (hydroxypropylcellulose) (HPC)
# [4] = dose: 100.0 mg/kg/injection, schedule: Q01DX005 (ip), vehicle: Klucel (hydroxypropylcellulose) (HPC)
# [5] = dose: 200.0 mg/kg/injection, schedule: Q01DX005 (ip), vehicle: Klucel (hydroxypropylcellulose) (HPC)
# [6] = dose: 200.0 mg/kg/injection, schedule: Q01DX005 (ip), vehicle: saline with Tween-80
# [7] = dose: 6.25 mg/kg/injection, schedule: Q01DX005 (ip), vehicle: Klucel (hydroxypropylcellulose) (HPC)
# [8] = dose: 12.5 mg/kg/injection, schedule: Q01DX005 (ip), vehicle: Klucel (hydroxypropylcellulose) (HPC)
# [9] = dose: 50.0 mg/kg/injection, schedule: Q01DX009 (ip), vehicle: saline with Tween-80
# [10] = dose: 100.0 mg/kg/injection, schedule: Q01DX009 (ip), vehicle: saline with Tween-80
# [11] = dose: 200.0 mg/kg/injection, schedule: Q01DX009 (ip), vehicle: saline with Tween-80
# [12] = dose: 25.0 mg/kg/injection, schedule: Q01DX005 (ip), vehicle: Klucel (hydroxypropylcellulose) (HPC)
# [13] = dose: 50.0 mg/kg/injection, schedule: Q01DX009 (ip), vehicle: saline
# [14] = dose: 100.0 mg/kg/injection, schedule: Q01DX009 (ip), vehicle: saline
# [15] = dose: 60.0 mg/kg/injection, schedule: Q01DX005 (ip), vehicle: saline with Tween-80
# [16] = dose: 120.0 mg/kg/injection, schedule: Q01DX005 (ip), vehicle: saline with Tween-80
# [17] = dose: 240.0 mg/kg/injection, schedule: Q01DX005 (ip), vehicle: saline with Tween-80
compound,measurement,setting,value
Cc1ccc(N/N=c2\c3nc4ccccc4nc2n(-c2ccccc2C)c(=S)n3-c2ccccn2)cc1,T/C,[1],100 % of control
same,T/C,[2],96 % of control
CNC(=O)OCc1c(C)oc(-c2ccccc2)c1COC(=O)NC,T/C,"dose: 12.5 mg/kg/injection, schedule: Q01DX009 (ip), vehicle: distilled water + Tween-80",93 % of control
same,T/C,"dose: 25.0 mg/kg/injection, schedule: Q01DX009 (ip), vehicle: distilled water + Tween-80",90 % of control
same,T/C,"dose: 50.0 mg/kg/injection, schedule: Q01DX009 (ip), vehicle: distilled water + Tween-80",100 % of control
CC(C)CC1N=C(NN=C(CCl)CCl)SP1(=O)NCCCCCCNP1(=O)SC(NN=C(CCl)CCl)=NC1CC(C)C (stereo unspecified),T/C,"dose: 60.0 mg/kg/injection, schedule: Q01DX005 (ip), vehicle: Klucel (hydroxypropylcellulose) (HPC)",100 % of control
same,T/C,"dose: 120.0 mg/kg/injection, schedule: Q01DX005 (ip), vehicle: Klucel (hydroxypropylcellulose) (HPC)",103 % of control
same,T/C,"dose: 240.0 mg/kg/injection, schedule: Q01DX005 (ip), vehicle: Klucel (hydroxypropylcellulose) (HPC)",102 % of control
CCC1CN2CCO[Si](CC[Si](C)(C)C)(OCC2)O1 (stereo unspecified),T/C,[3],97 % of control
same,T/C,[4],97 % of control
same,T/C,[5],101 % of control and 104 % of control
Cc1cc(NCCCNCCCNc2cc(C)nc3cc([N+](=O)[O-])ccc23)c2ccc([N+](=O)[O-])cc2n1,T/C,"dose: 12.5 mg/kg/injection, schedule: Q01DX009 (ip), vehicle: other",150 % of control
same,T/C,"dose: 25.0 mg/kg/injection, schedule: Q01DX009 (ip), vehicle: other",121 % of control
O=C1C(Cl)OC(c2ccccc2)=NN1c1ccccc1 (stereo unspecified),T/C,"dose: 50.0 mg/kg/injection, schedule: Q01DX005 (ip), vehicle: distilled water + alcohol",97 % of control
same,T/C,"dose: 100.0 mg/kg/injection, schedule: Q01DX005 (ip), vehicle: distilled water + alcohol",107 % of control
same,T/C,"dose: 200.0 mg/kg/injection, schedule: Q01DX005 (ip), vehicle: distilled water + alcohol",97 % of control
CCCCN1CCC(CNc2ccnc3cc(Cl)ccc23)C1 (stereo unspecified),T/C,"dose: 12.5 mg/kg/injection, schedule: Q01DX005 (ip), vehicle: saline with Tween-80",93 % of control
same,T/C,"dose: 25.0 mg/kg/injection, schedule: Q01DX005 (ip), vehicle: saline with Tween-80",90 % of control
same,T/C,[1],109 % of control and 93 % of control
CCOC1=C(CC)C(=O)c2ccccc2C1=O,T/C,[3],100 % of control
same,T/C,[4],100 % of control
same,T/C,[5],107 % of control
Cc1[nH][nH]c(=O)c1C=Nc1ccccc1,T/C,[3],103 % of control
same,T/C,[4],100 % of control
same,T/C,[5],95 % of control
CCC(C)N(CC)CCNc1cc(OC)cc2cccnc12 (stereo unspecified),T/C,"dose: 50.0 mg/kg/injection, schedule: Q01DX005 (ip), vehicle: saline",103 % of control
same,T/C,"dose: 100.0 mg/kg/injection, schedule: Q01DX005 (ip), vehicle: saline",99 % of control
NC(Cc1c(Br)[nH]c2ccccc12)C(=O)O (stereo unspecified),T/C,[1],98 % of control
same,T/C,[2],103 % of control
same,T/C,[6],104 % of control
CCCCN(CCCC)C(=N)/C=C/c1ccccc1,T/C,[7],97 % of control
same,T/C,[8],103 % of control
COc1cccc(CSC(C(=O)O)c2ccccc2)c1 (stereo unspecified),T/C,[9],107 % of control
same,T/C,[10],101 % of control
same,T/C,[11],117 % of control
CCN(CC)C(=NC(C)(C)C)c1ccccc1,T/C,"dose: 3.12 mg/kg/injection, schedule: Q01DX009 (ip), vehicle: saline",101 % of control and 93 % of control and 97 % of control
same,T/C,[7],107 % of control
same,T/C,"dose: 6.25 mg/kg/injection, schedule: Q01DX009 (ip), vehicle: saline",96 % of control and 97 % of control
same,T/C,[8],100 % of control
same,T/C,[12],107 % of control
same,T/C,[13],99 % of control
Cc1nc2c(cnn2C)c(=O)[nH]1,T/C,[3],96 % of control
same,T/C,[4],98 % of control
same,T/C,[5],97 % of control
C/C(=N\N=C(\[Se])N1CC(C)OC(C)C1)c1ccccn1 (stereo unspecified),T/C,"dose: 10.0 mg/kg/injection, schedule: Q04DX003 (ip), vehicle: saline with Tween-80",100 % of control
same,T/C,"dose: 25.0 mg/kg/injection, schedule: Q04DX003 (ip), vehicle: saline with Tween-80",106 % of control
same,T/C,"dose: 50.0 mg/kg/injection, schedule: Q04DX003 (ip), vehicle: saline with Tween-80",107 % of control
same,T/C,"dose: 100.0 mg/kg/injection, schedule: Q04DX003 (ip), vehicle: saline with Tween-80",109 % of control
same,T/C,"dose: 200.0 mg/kg/injection, schedule: Q04DX003 (ip), vehicle: saline with Tween-80",121 % of control
O=C(O)CN(CCN(CC(=O)O)CC(=O)O)CC(=O)O.[O]=[Mo]1[O][Mo](=[O])[O]1,T/C,[13],89 % of control
same,T/C,[14],90 % of control
O=C(N/N=C/c1cccc(C(F)(F)F)c1)c1ccncc1,T/C,[15],103 % of control
same,T/C,[16],97 % of control
same,T/C,[17],90 % of control
C/C(=N\NC(=S)Nc1ccc(C(=O)O)cc1)c1nccc2ccccc12,T/C,[1],100 % of control
same,T/C,[2],90 % of control
same,T/C,[6],90 % of control
Cc1ccccc1CN1CC2=C(CCN(Cc3ccccc3)C2=O)N2CCN=C12,T/C,[1],96 % of control
same,T/C,[2],96 % of control
same,T/C,[6],100 % of control
CCCCCCCCCNCC(O)c1cc2c(c3ccccc13)CCCC2 (stereo unspecified),T/C,[7],92 % of control
same,T/C,[8],90 % of control
same,T/C,[12],99 % of control
CSCC(C)C(N)C(=O)O (stereo unspecified),T/C,"dose: 50.0 mg/kg/injection, schedule: Q01DX009 (ip), vehicle: Klucel (hydroxypropylcellulose) (HPC)",109 % of control
same,T/C,"dose: 100.0 mg/kg/injection, schedule: Q01DX009 (ip), vehicle: Klucel (hydroxypropylcellulose) (HPC)",105 % of control
same,T/C,"dose: 200.0 mg/kg/injection, schedule: Q01DX009 (ip), vehicle: Klucel (hydroxypropylcellulose) (HPC)",100 % of control
CCOC(=O)NNc1cccc(Cl)c1,T/C,[13],100 % of control
same,T/C,[14],100 % of control
CC1=C(C)C(=Nc2ccc(N(CCCl)CCCl)cc2)C=CC1=O,T/C,"dose: 50.0 mg/kg/injection, schedule: Q01DX001 (ip), vehicle: Klucel (hydroxypropylcellulose) (HPC)",97 % of control
same,T/C,"dose: 100.0 mg/kg/injection, schedule: Q01DX001 (ip), vehicle: Klucel (hydroxypropylcellulose) (HPC)",100 % of control
same,T/C,"dose: 200.0 mg/kg/injection, schedule: Q01DX001 (ip), vehicle: Klucel (hydroxypropylcellulose) (HPC)",114 % of control
COc1ccc2c(=O)c(S)coc2c1,T/C,[15],100 % of control
same,T/C,[16],101 % of control
same,T/C,[17],100 % of control
CCCCCCC1CC1C(=O)NCCCCCN=C(N)N (stereo unspecified),T/C,"dose: 7.5 mg/kg/injection, schedule: Q01DX009 (ip), vehicle: Klucel (hydroxypropylcellulose) (HPC)",100 % of control
same,T/C,"dose: 15.0 mg/kg/injection, schedule: Q01DX009 (ip), vehicle: Klucel (hydroxypropylcellulose) (HPC)",100 % of control
same,T/C,"dose: 30.0 mg/kg/injection, schedule: Q01DX009 (ip), vehicle: Klucel (hydroxypropylcellulose) (HPC)",107 % of control
NN1C(=O)CS/C1=N\C(=S)N/N=C1/SCC(=O)N1N,T/C,"dose: 0.04 mg/kg/injection, schedule: Q01DX009 (ip), vehicle: saline",94 % of control
same,T/C,"dose: 0.09 mg/kg/injection, schedule: Q01DX009 (ip), vehicle: saline",97 % of control
same,T/C,"dose: 0.19 mg/kg/injection, schedule: Q01DX009 (ip), vehicle: saline",99 % of control
same,T/C,"dose: 0.78 mg/kg/injection, schedule: Q01DX009 (ip), vehicle: saline",98 % of control and 99 % of control
COc1ccc(-c2oc3cc(OC)c(OC)c(O)c3c(=O)c2O)cc1O,T/C,"dose: 25.0 mg/kg/injection, schedule: Q04DX002 (ip), vehicle: saline with Tween-80",105 % of control
same,T/C,"dose: 50.0 mg/kg/injection, schedule: Q04DX002 (ip), vehicle: saline with Tween-80",110 % of control
same,T/C,"dose: 100.0 mg/kg/injection, schedule: Q04DX002 (ip), vehicle: saline with Tween-80",103 % of control
same,T/C,"dose: 200.0 mg/kg/injection, schedule: Q04DX002 (ip), vehicle: saline with Tween-80",102 % of control
CCN(CC)CCNc1ccc(C)c2sc3c(O)cccc3c(=O)c12,T/C,[9],104 % of control
same,T/C,[10],100 % of control
same,T/C,[11],104 % of control
CCOC(=O)c1cc[nH]c1CC(=O)OC,T/C,"dose: 100.0 mg/kg/injection, schedule: Q01DX001 (ip), vehicle: saline with Tween-80",99 % of control
same,T/C,"dose: 200.0 mg/kg/injection, schedule: Q01DX001 (ip), vehicle: saline with Tween-80",96 % of control
same,T/C,"dose: 400.0 mg/kg/injection, schedule: Q01DX001 (ip), vehicle: saline with Tween-80",100 % of control

# — PubChem BioAssay AID330 (DTP/NCI, 2004)
